*1 amine or outer side, *2 acyl side, *3 side chain or, on linkers, in order; H or OH if unused. Where a SMILES comes first, the peptide text is derived from it. Bridges are numbered along the chain shown (N, C = ends). Roman numbers before positions name the chains, in order. [ ]: non-standard residue; d: D form. X1 = O=C(CCCCC(=O)[*:2])NCCCOCCOCCOCCCNC(=O)CCC(=O)[*:1]; NMeF = CN[C@@H](Cc1ccccc1)C(=O)O; NMeL = CN[C@@H](CC(C)C)C(=O)O; NMeV = CN[C@H](C(=O)O)C(C)C
Key:
[1] = Carboxyfluorescein dye leakage from LUVs, Aβ40; type: biochemical
Protocol: Smaller Aβ oligomers or protofibrils are more toxic than mature fibrils in AD progression due to their ability to disrupt membranes via pore formation.[37,38] […] To evaluate this, we performed a membrane leakage assay on carboxyfluorescein-loaded large unilamellar vesicles (LUVs).[38] The time required for Aβ40 oligomer and mature fibril formation is 12 h and 72 h, respectively (inferred from ThT assay, black curve, Fig. 2a), which directed us to set up the LUV leakage assay. […] The fluorescence intensity of complete dye release from LUVs by Triton X-100 served as a positive control (100% leakage), and untreated dye-loaded LUVs assisted as a negative control. […]
e. Time-resolved photoluminescence (TRPL) […]
μM. Then, 600 μL of peptide sample was placed in a 1 mL fluorescence cuvette and measure the excited state lifetime on Eddinburg FSP920 Instrument. f. […]
Prior to the analysis, samples were filtered through 0.45 µm PVDF membrane. […] For each sample, the analyses were recorded three times with 11 sub-runs using the multimodal mode. The Z-average diameter was calculated from the correlation function using Malvern technology software. g. […]
h. Carboxyfluorescein dye loaded Large Unilamellar Vesicles (LUVs) Leakage Study For leakage study, peptide and lipids were taken in 1:20 molar ratios, and the dye release was monitored by fluorescence emission. […]

Sprague-Dawley rats = assay: Acute and sub-chronic toxicity, mortality, behaviour and body weight; type: in vivo
Protocol: 24 male Sprague Dawley rats were randomly divided into three groups: control, SP1A, and SP1B. Each group contains 8 animals and administration of SP1was performed for 42 days through a tail vein by the following schedule: Control: Without any treatment.
Rats were sacrificed after 42 days of injection schedule and blood was collected for hematological and biochemical estimations. For the histopathological study, the liver and kidney were also isolated very carefully and checked for cytoarchitectural changes if any.
The body weights and volumes of SP1 to be administered were recorded for each animal. Prior to injection, the tail of the animal was warmed by using warm water circulating pad placed under the cage for 5-10 minutes to dilate the veins. A 25-gauge needle was inserted into the vein towards the direction of the head. The needle and syringe were kept parallel to the tail. […]
µg/kg and 500 µg/kg) was injected into the tail slowly. The needle was removed very carefully and gentle compression applied until bleeding was stopped. Animals were returned to their home cage. […]

Compound	dye leakage from LUVs ([1]; Aβ40 oligomers (12 h aged), until 100 min, untreated LUVs ∼9%, Triton X-100 = 100%) [%]	dye leakage from LUVs ([1]; mature Aβ40 fibrils (72 h), 100 min, peptide:lipid 1:20) [%]	mortality and behavioral patterns (Sprague-Dawley rats; 100 and 500 μg kg−1, tail vein, 42 days)	body weight (Sprague-Dawley rats; 100 and 500 μg kg−1, days 7, 21, and 42, vs control)
Aβ40: commercially available Aβ40 peptide	~40	~15		
CC(C)C[C@H](NC(=O)CNC(=O)CCC(=O)NCCCOCCOCCOCCCNC(=O)CCCCC(=O)NCC(=O)N(C)[C@@H](CC(C)C)C(=O)N[C@H](C(=O)N(C)[C@@H](Cc1ccccc1)C(=O)N[C@@H](Cc1ccccc1)C(=O)N[C@@H](C)C(N)=O)C(C)C)C(=O)N(C)[C@H](C(=O)N[C@@H](Cc1ccccc1)C(=O)N(C)[C@@H](Cc1ccccc1)C(=O)N[C@@H](C)C(N)=O)C(C)C [SP1] (I: GL[NMeV]F[NMeF]A-NH2 / II: G[NMeL]V[NMeF]FA-NH2; linker I:N-II:N via X1)			causes neither mortality nor abnormal behavioral patterns in rats	did not observe any significant changes in the rats' body weight

Source: publication PMC8179358, “An explicitly designed paratope of amyloid-β prevents neuronal apoptosis in vitro and hippocampal damage in rat brain” (Chemical Science, 2020)
